Experimental data published in patent publication US20230416262A1, “TRPML MODULATORS” (Casma Therapeutics, Inc., priority 2020, published 2023).
pEC50: −log10 of the molar value.

Test system: TFEB
Assay: TFEB nuclear translocation assay
Format: cell-based
Conditions: Homo sapiens; HeLa wt or HeLa TRPML1 KO cells, treated for 2 hrs; ratio of nuclear to ring-region TFEB intensity
Experimental: For the TFEB nuclear translocation assay, HeLa wt or HeLa TRPML1 KO cells were plated at 2700 cells/well into black-walled, 384-well Cell carrier Ultra tissue culture treated plates in complete media and incubated overnight. The next day, cells are treated for 2 hrs with compounds and incubated at 37° C. Cells were then fixed for 30 minutes at room temperature in 4% final PFA and washed five times with 90 μL PBS. PBS is aspirated from the wells and the cells are blocked with 7.5 μL blocking buffer (1.1 PBS/Odyssey block buffer containing 0.1% triton x-100 and 1% goat serum). After 30-60 minutes of block, 7.5 μL of primary anti-TFEB (rabbit) antibody is added for a final dilution of 1:200 antibody in 15 μL blocking buffer. Plates are incubated overnight at 4° C. The following day, plates are washed again into PBS, 90 μL with 5 washes, all PBS is aspirated from the wells and the cells are incubated for 1 hr in 1:1000 goat-anti rabbit Alexa 488 secondary antibody, also containing 10 μg/mL Hoechst 33342. After the 1 hr RT incubation, plates are washed a final time into PBS, sealed with foil and imaged with an automated epifluorescence microscopy (PerkinElmer Operetta CLS). Four different fields were imaged per well using ×20 magnification for DAPI and FITC filter sets. Images were quantified using PerkinElmer Harmony software, briefly: apply flatfield correction (basic/advanced) for input images. Use the Find Nuclei building block with channel set at Hoechst to find the nuclei. Use the Find cytoplasm building block with channel set to Alexa 488 to find the cytoplasm. Use select cell region with Channel set at Alexa 488 and region of interest as Nuclei and define outer border at 0 μm and inner at 45 μm to cover complete nuclei. Use select cell region with Channel set at Alexa 488 and region of interest as ring region and define outer border at −5 μm and inner at 0 μm to define a ring around the nucleus. Use the find calculate intensity parameter to calculate intensity of the nuclear region and the ring region. Define results as Number of nuclei and ratio of A/B where A is Intensity of Nuclei and B is intensity of the ring region.

SMILES	pEC50
O=S(=O)(Cc1ccccc1)N1CC2(CCCC2)c2ccccc21 [Compound I-1, 1′-phenylmethanesulfonyl-1′,2′-dihydrospiro[cyclopentane-1,3′-indole]]	5.00 to 5.10
CC(C)C(=O)c1ccc(S(=O)(=O)N2CC3(CCCC3)c3ccccc32)cc1 [Compound I-3, 1-[4-({1′,2′-dihydrospiro[cyclopentane-1,3′-indol]-1′-yl}sulfonyl)phenyl]-2-methylpropan-1-one]	5.10 to 5.70
CC(C)c1ccc(S(=O)(=O)N2CC3(CCCC3)c3ccccc32)cc1 [Compound I-4, 1′-[4-(propan-2-yl)benzenesulfonyl]-1′,2′-dihydrospiro[cyclopentane-1,3′-indole]]	5.00 to 5.10
CN1Cc2cc(S(=O)(=O)N3CC4(CCCC4)c4ccccc43)ccc2OC1=O [Compound I-6, 6-({1′,2′-dihydrospiro[cyclopentane-1,3′-indol]-1′-yl}sulfonyl)-3-methyl-3,4-dihydro-2H-1,3-benzoxazin-2-one]	≤ 5.00
COC(CS(=O)(=O)N1CC2(CCCC2)c2ccccc21)c1ccc(F)cc1 (stereo not drawn) [Compound I-7, 1′-[2-(4-fluorophenyl)-2-methoxyethanesulfonyl]-1′,2′-dihydrospiro[cyclopentane-1,3′-indole]]	≤ 5.00
COC1Cc2ccc(S(=O)(=O)N3CC4(CCCC4)c4ccccc43)cc2C1 (stereo not drawn) [Compound I-8, 1′-[(2-methoxy-2,3-dihydro-1H-inden-5-yl)sulfonyl]-1′,2′-dihydrospiro[cyclopentane-1,3′-indole]]	≤ 5.00
CS(=O)(=O)c1ccc(S(=O)(=O)N2CC3(CCCC3)c3ccccc32)cc1 [Compound I-9, 1′-(4-methanesulfonylbenzenesulfonyl)-1′,2′-dihydrospiro[cyclopentane-1,3′-indole]]	5.10 to 5.70
CS(=O)(=O)c1ccc(S(=O)(=O)N2CC3(CCCC3)c3ccccc32)cc1F [Compound I-10, 1′-(3-fluoro-4-methanesulfonylbenzenesulfonyl)-1′,2′-dihydrospiro[cyclopentane-1,3′-indole]]	5.10 to 5.70
Cc1cc(S(=O)(=O)N2CC3(CCCC3)c3ccccc32)ccc1F [Compound I-11, 1′-(4-fluoro-3-methylbenzenesulfonyl)-1′,2′-dihydrospiro[cyclopentane-1,3′-indole]]	≤ 5.00
Cc1ccc(CS(=O)(=O)N2CC3(CCCC3)c3ccccc32)cc1 [Compound I-12, 1′-[(4-methylphenyl)methanesulfonyl]-1′,2′-dihydrospiro[cyclopentane-1,3′-indole]]	≤ 5.00
Cc1ccc(S(=O)(=O)N2CC3(CCCC3)c3ccccc32)cc1 [Compound I-13, 1′-(4-methylbenzenesulfonyl)-1′,2′-dihydrospiro[cyclopentane-1,3′-indole]]	≤ 5.00
Cc1ccc(CS(=O)(=O)N2CC3(CCCC3)c3ccccc32)cc1C [Compound I-14, 1′-[(3,4-dimethylphenyl)methanesulfonyl]-1′,2′-dihydrospiro[cyclopentane-1,3′-indole]]	5.10 to 5.70
Cc1ccc(S(=O)(=O)N2CC3(CCCC3)c3ccccc32)cc1F [Compound I-15, 1′-(3-fluoro-4-methylbenzenesulfonyl)-1′,2′-dihydrospiro[cyclopentane-1,3′-indole]]	5.00 to 5.10
Cc1cccc(CS(=O)(=O)N2CC3(CCCC3)c3ccccc32)c1 [Compound I-16, 1′-[(3-methylphenyl)methanesulfonyl]-1′,2′-dihydrospiro[cyclopentane-1,3′-indole]]	≤ 5.00
O=S(=O)(c1cnn(C2CCC2)c1)N1CC2(CCCC2)c2ccccc21 [Compound I-17, 1′-[(1-cyclobutyl-1H-pyrazol-4-yl)sulfonyl]-1′,2′-dihydrospiro[cyclopentane-1,3′-indole]]	≤ 5.00
O=S(=O)(c1cnn(C2CCCCC2)c1)N1CC2(CCCC2)c2ccccc21 [Compound I-18, 1′-[(1-cyclohexyl-1H-pyrazol-4-y1)sulfonyl]-1′,2′-dihydrospiro[cyclopentane-1,3′indole]]	5.10 to 5.70
O=S(=O)(c1cnn(C2CCOCC2)c1)N1CC2(CCCC2)c2ccccc21 [Compound I-19]	≤ 5.00
O=S(=O)(c1cncc(C(F)F)c1)N1CC2(CCCC2)c2ccccc21 [Compound I-20, 1′-{[S-(difluoromethyl)pyridin-3-yl]sulfonyl}-1′,2′-dihydrospiro[cyclopentane-1,3′-indole]]	≤ 5.00
O=S(=O)(c1cc(C2OCCO2)cs1)N1CC2(CCCC2)c2ccccc21 [Compound I-21, 1′-{[4-(1,3-dioxolan-2-yl)thiophen-2-yl]sulfonyl}-1′,2′-dihydrospiro[cyclopentane-1,3′-indole]]	≤ 5.00
O=S(=O)(c1ccc(C2OCCO2)cc1F)N1CC2(CCCC2)c2ccccc21 [Compound I-22, 1′-[4-(1,3-dioxolan-2-yl)-2-fluorobenzenesulfonyl]-1′,2′-dihydrospiro[cyclopentane-1,3′-indole]]	≤ 5.00
O=S(=O)(c1ccc(OC(F)F)c(F)c1)N1CC2(CCCC2)c2ccccc21 [Compound I-23, 1′-[4-(difluoromethoxy)-3-fluorobenzenesulfonyl]-1′,2′-dihydrospiro[cyclopentane-1,3′-indole]]	≤ 5.00
O=S(=O)([C@H]1C[C@@H]1c1cccc(F)c1)N1CC2(CCCC2)c2ccccc21 [Compound I-24, 1′{[(1S,2R)-2-(3-fluorophenyl)cyclopropyl]sulfonyl}-1′,2′-dihydrospiro[cyclopentane-1,3′-indole]]	≤ 5.00
O=S(=O)(Cc1cccc(F)c1)N1CC2(CCCC2)c2ccccc21 [Compound I-25, 1′-[(3-fluorophenyl)methanesulfonyl]-1′,2′-dihydrospiro[cyclopentane-1,3′-indole]]	5.10 to 5.70
O=S(=O)(c1cccc(C2CC2)c1)N1CC2(CCCC2)c2ccccc21 [Compound I-26, 1′-(3-cyclopropylbenzenesulfonyl)-1′,2′-dihydrospiro[cyclopentane-1,3′-indole]]	5.10 to 5.70
O=S(=O)(c1cccc(C2OCCO2)c1)N1CC2(CCCC2)c2ccccc21 [Compound I-27, 1′-[3-(1,3-dioxolan-2-yl)benzenesulfonyl]-1′,2′-dihydrospiro[cyclopentane-1,3′-indole]]	5.10 to 5.70
O=S(=O)(c1ccc(C(F)F)cc1)N1CC2(CCCC2)c2ccccc21 [Compound I-28, 1′-[4-(difluoromethyl)benzenesulfonyl]-1′,2′-dihydrospiro[cyclopentane-1,3′-indole]]	≤ 5.00
O=S(=O)(c1ccc(C2CC2)cc1)N1CC2(CCCC2)c2ccccc21 [Compound I-29, 1′-(4-cyclopropylbenzenesulfonyl)-1′,2′-dihydrospiro[cyclopentane-1,3′-indole]]	5.10 to 5.70
O=S(=O)(Cc1ccc(F)cc1)N1CC2(CCCC2)c2ccccc21 [Compound I-30, 1′-[(4-fluorophenyl)methanesulfonyl]-1′,2′-dihydrospiro[cyclopentane-1,3′-indole]]	≤ 5.00
O=S(=O)(c1ccc(Br)cc1)N1CC2(CCCC2)c2ccccc21 [Compound I-32, 1′-(4-bromobenzenesulfonyl)-1′,2′-dihydrospiro[cyclopentane-1,3′-indole]]	≤ 5.00
O=S(=O)(c1ccc(C2CC2)s1)N1CC2(CCCC2)c2ccccc21 [Compound I-33, 1′-[(5-cyclopropylthiophen-2-yl)sulfonyl]-1′,2′-dihydrospiro[cyclopentane-1,3′-indole]]	≤ 5.00
